# Assay results reported in ChEMBL document CHEMBL1136837, “Unified QSAR approach to antimicrobials. 4. Multi-target QSAR modeling and comparative multi-distance study of the giant components of antiviral drug-drug complex networks” (Bioorg Med Chem, 2009).
# pIC50: −log10 of the molar value.
# Tests used:
# Influenza A virus H3N2 = assay: Antiviral activity against influenza H3N2 virus; format: functional, organism-based, H3N2 subtype
# Human adenovirus 2 = assay: Antiviral activity against Human adenovirus 2; format: functional, organism-based; conditions: Human mastadenovirus C
# Human gammaherpesvirus 4 = assay: Antiviral activity against Epstein-Barr virus; format: functional, organism-based
# Human alphaherpesvirus 1 = assay: Antiviral activity against Herpes simplex virus 1; format: functional, organism-based; conditions: Human alphaherpesvirus 1
# Human alphaherpesvirus 2 = assay: Antiviral activity against Herpes simplex virus 2; format: functional, organism-based; conditions: Human alphaherpesvirus 2
# Human alphaherpesvirus 3 = assay: Antiviral activity against Varicella zoster virus; format: functional, organism-based
# Human rhinovirus sp. = assay: Antiviral activity against Human rhinovirus; format: functional, organism-based
# Influenza A virus = assay: Antiviral activity against influenza H1N1 virus; format: functional, organism-based
# Simplexvirus = assay: Antiviral activity against Herpes simplex virus; format: functional, organism-based
# Human betaherpesvirus 5 = assay: Antiviral activity against Human cytomegalovirus; format: functional, organism-based; conditions: Human betaherpesvirus 5
# Picornaviridae = assay: Antiviral activity against Human picornavirus; format: functional, organism-based
# [1] = system: unidentified influenza virus; assay: Antiviral activity against influenza virus; format: functional, organism-based
# [2] = system: Human immunodeficiency virus 1; assay: Antiviral activity against HIV1; format: functional, organism-based
# [3] = system: Moloney murine sarcoma virus; assay: Antiviral activity against Moloney sarcoma virus; format: functional, organism-based
# Hepatitis B virus = assay: Antiviral activity against Hepatitis B virus; format: functional, organism-based
# Influenza B virus = assay: Antiviral activity against influenza B virus; format: functional, organism-based
# [4] = system: Human immunodeficiency virus 2; assay: Antiviral activity against HIV2; format: functional, organism-based
structure (smiles),measurement,setting,value
CCC(CC)C(NC(C)=O)C1C(NC(=N)N)CC(C(=O)O)C1O (stereo not drawn),pIC50,Influenza A virus H3N2,6.85
Nc1ccn([C@H]2CC[C@@H](CO)O2)c(=O)n1 [ZALCITABINE],pIC50,Human adenovirus 2,5.48
COc1nc(N)nc2c1ncn2/C=C1/CC1(CO)CO,pIC50,Human gammaherpesvirus 4,3.79
same,pIC50,Human alphaherpesvirus 1,3.44
same,pIC50,Human alphaherpesvirus 2,3.44
same,pIC50,Human alphaherpesvirus 3,5.52
CCOC(=O)/C=C/[C@H](C[C@@H]1CCNC1=O)NC(=O)/C=C/c1ccc2c(c1)OCO2,pIC50,Human rhinovirus sp.,5.74
CCOC(=O)/C=C/[C@H](CCC(N)=O)NC(=O)[C@H](Cc1ccccc1)n1cccc(NC(=O)c2cc(C)on2)c1=O,pIC50,Human rhinovirus sp.,7.80
CCCC(CCC)C(NC(C)=O)C1CC(C(=O)O)CC1NC(=N)N (stereo not drawn),pIC50,Influenza A virus,6.14
Nc1ncnc2c1c(Br)cn2COC(CO)CO,pIC50,Simplexvirus,5.74
same,pIC50,Human betaherpesvirus 5,5.82
CNC(=O)/C=C(\c1ccccc1)c1ccc2nc(NCC(=O)NC)c(-c3ccc(F)cc3)n2n1,pIC50,Picornaviridae,6.96
CCC(CC)[C@H](NC(C)=O)[C@@H]1[C@H](O)[C@@H](C(=O)O)C[C@H]1NC(=N)N [PERAMIVIR ANHYDROUS],pIC50,Influenza A virus,6.70
same,pIC50,[1],5.08
Nc1cc(O)nc(SCCOCP(=O)(O)O)n1,pIC50,Human alphaherpesvirus 1,8.85
same,pIC50,Human alphaherpesvirus 2,8.85
same,pIC50,[2],9.45
same,pIC50,[3],9.59
same,pIC50,Human alphaherpesvirus 3,9.75
O=C(O)P(=O)(O)O [FOSCARNET],pIC50,Human adenovirus 2,3.30
same,pIC50,Human betaherpesvirus 5,5.15
N#Cc1cn([C@@H]2O[C@H](CO)[C@@H](O)[C@@H]2F)c2ncnc(N)c12,pIC50,Simplexvirus,6.33
same,pIC50,Human betaherpesvirus 5,7.60
CCOC(=O)/C=C/[C@H](C[C@@H]1CCNC1=O)NC(=O)C1=Cc2cc(Cl)ccc2OC1,pIC50,Human rhinovirus sp.,6.80
CCOC(=O)/C=C/[C@H](CCC(N)=O)NC(=O)[C@H](Cc1ccccc1)n1cccc(NC(C)=O)c1=O,pIC50,Human rhinovirus sp.,6.05
CCOC(=O)/C=C/[C@H](C[C@@H]1CCNC1=O)NC(=O)C1=Cc2cc(Br)ccc2OC1,pIC50,Human rhinovirus sp.,6.74
O=C(NCc1ccc(Cl)cc1)c1cnc2ccc(CCCO)cc2c1O,pIC50,Simplexvirus,4.96
CCOC(=O)/C=C/[C@H](C[C@@H]1CCNC1=O)NC(=O)c1cc(-c2ccccc2)oc1C,pIC50,Human rhinovirus sp.,5.71
CCOC(=O)/C=C/[C@H](CCC(N)=O)NC(=O)[C@H](Cc1ccccc1)n1cccc(NC(=O)C2SCCS2)c1=O,pIC50,Human rhinovirus sp.,6.98
Nc1nc2c(ncn2/C=C2/CC2(CO)CO)c(=O)[nH]1 [FILOCICLOVIR],pIC50,Human gammaherpesvirus 4,4.35
same,pIC50,Human alphaherpesvirus 1,3.42
same,pIC50,Human alphaherpesvirus 2,3.42
same,pIC50,Human alphaherpesvirus 3,3.42
Cn1cnc2c(NCc3ccccc3)nc(NCCO)nc21 [OLOMOUCINE],pIC50,Simplexvirus,4.00
Nc1nc2ccc(/C(=N/Nc3ccccc3)c3ccccc3)nn2c1-c1ccc(F)cc1,pIC50,Picornaviridae,5.00
Nc1nc2ccc(/C(=N/O)c3ccccc3)nn2c1-c1ccc(F)cc1,pIC50,Picornaviridae,7.30
Nc1nc2c(ncn2/C=C2\CC2(F)CO)c(=O)[nH]1 (stereo not drawn),pIC50,Human gammaherpesvirus 4,4.70
same,pIC50,Hepatitis B virus,4.70
same,pIC50,[2],4.00
same,pIC50,Human alphaherpesvirus 3,4.10
NC12CC3CC(CC(C3)C1)C2 [AMANTADINE],pIC50,Influenza B virus,4.30
same,pIC50,Influenza A virus,4.30
same,pIC50,Influenza A virus H3N2,6.20
CCOC(=O)/C=C/[C@H](C[C@@H]1CCNC1=O)NC(=O)C1=Cc2ccccc2OC1,pIC50,Human rhinovirus sp.,5.92
Cc1cn(/C=C2/CC2(F)CO)c(=O)[nH]c1=O (stereo not drawn),pIC50,Human gammaherpesvirus 4,4.29
same,pIC50,Hepatitis B virus,4.70
same,pIC50,[2],4.00
same,pIC50,Human alphaherpesvirus 3,6.21
Nc1nc(OCCOCP(=O)(O)O)cc(OCCOCP(=O)(O)O)n1,pIC50,Human alphaherpesvirus 1,9.23
same,pIC50,Human alphaherpesvirus 2,9.00
same,pIC50,[2],9.85
same,pIC50,[4],9.70
same,pIC50,[3],9.97
same,pIC50,Human alphaherpesvirus 3,9.91
Nc1cc(SCCOCP(=O)(O)O)nc(N)n1,pIC50,Human alphaherpesvirus 1,9.98
same,pIC50,Human alphaherpesvirus 2,9.54
same,pIC50,[3],6.22
same,pIC50,Human alphaherpesvirus 3,10.27
